Measurements published in PMC3914891, “Pentacyclic Nitrofurans with In Vivo Efficacy and Activity against Nonreplicating Mycobacterium tuberculosis” (PLoS ONE, 2014).
Converted amounts (≈) assume the structure as drawn. Read-outs that look alike come from different tables or passages of the source. Marks after values point to notes of the source that are not given here.

Columns and labels:
[1] = system: Proteus vulgaris (ATCC 33420); assay: MIC, spectrum of activity: Proteus vulgaris; type: cell-based; details: ATCC33420
[2] = rat, in vivo, cited from earlier work
[3] = system: Klebsiella pneumoniae (ATCC 33495); assay: MIC, spectrum of activity: Klebsiella pneumoniae; type: cell-based; details: ATCC33495
[4] = system: Enterococcus faecalis (ATCC 33186); assay: MIC, spectrum of activity: E.f.; type: cell-based; details: ATCC33186, read-out: Minimum Inhibitory Concentration, E.f.
H37Rv-wt = assay: microbe, parasite or virus in culture; type: cell-based, M. tuberculosis; details: Mycobacterium tuberculosis
E. coli K12 ∆tolC = type: cell-based; details: E. coli K12 ∆tolC (efflux pump deficient)
[5] = system: Stenotrophomonas maltophilia (ATCC 13637); assay: MIC, spectrum of activity: S.m.; type: cell-based; details: ATCC13637, read-out: Minimum Inhibitory Concentration, S.m.
M. kansasii (ATCC 12478) = assay: MIC, non-tuberculosis mycobacteria: M. kansasii; type: cell-based; details: Mycobacterium kansasii, ATCC12478, 168 h; broth dilution, visual inspection, 7 days; read-out: Minimum Inhibitory Concentration, M. kansasii
[6] = system: M. abscessus (ATCC 19977); assay: MIC, non-tuberculosis mycobacteria: M. abscessus; type: cell-based; details: Mycobacteroides abscessus, ATCC19977, 72 h; broth dilution, visual inspection, 3 days; range of at least two independent experiments; read-out: Minimum Inhibitory Concentration, M. abscessus
[7] = system: Streptococcus pneumoniae (R6); assay: MIC, spectrum of activity: S.pn; type: cell-based; details: read-out: Minimum Inhibitory Concentration, S. Pn.
M. tuberculosis = assay: MIC determination, microbroth dilution, M. tuberculosis; type: cell-based, Mycobacterium tuberculosis; details: for MIC: Mycobacterium tuberculosis
[8] = system: Bacillus anthracis sterne 34F2; assay: microbe, parasite or virus in culture; type: cell-based; details: STERNE34F2, read-out: Minimum Inhibitory Concentration, B.a.
[9] = system: Proteus mirabilis(ATCC 25933); assay: MIC, spectrum of activity: Proteus mirabilis; type: cell-based; details: ATCC25933
[10] = cited from earlier work
[11] = system: Streptococcus pyogenes (ATCC 700294); assay: MIC, spectrum of activity: S.py; type: cell-based; details: ATCC700294, read-out: Minimum Inhibitory Concentration, S. Py.
M. tuberculosis H37Rv = assay: Minimum bactericidal concentration determination; type: cell-based, Mycobacterium tuberculosis
[12] = system: M. tuberculosis strain H37Rv (mid-log and nutrient-starved); assay: Nutrient starvation model of nonreplicating persisters; type: cell-based, Mycobacterium tuberculosis
M. avium (ATCC 25291) = assay: MIC, non-tuberculosis mycobacteria: M. avium; type: cell-based; details: Mycobacterium avium, ATCC25291, 168 h; broth dilution, visual inspection, 7 days; read-out: Minimum Inhibitory Concentration, M. avium
[13] = In vitro cytotoxicity against Vero cells; details: African green monkey, Vero cells (kidney epithelial cells, ATCC CCL-81)
Vero cells = assay: In vitro cytotoxicity against Vero cells
[14] = mouse, plasma; cited from earlier work
in vitro = details: mouse, microsomes
[15] = system: Bacillus subtilis (ATCC 23857); assay: MIC, spectrum of activity: B.s.; type: cell-based; details: ATCC23857, read-out: Minimum Inhibitory Concentration, B.s.
M. fortuitum (ATCC 6841) = assay: MIC, non-tuberculosis mycobacteria: M. fortuitum; type: cell-based; details: Mycolicibacterium fortuitum, ATCC6841, 72 h; broth dilution, visual inspection, 3 days; read-out: Minimum Inhibitory Concentration, M. fortuitum
[16] = system: Staphylococcus aureus (ATCC 29213); assay: MIC, spectrum of activity: S.a.; type: cell-based; details: ATCC29213, read-out: Minimum Inhibitory Concentration, S.a
[17] = system: Pseudomonas aeruginosa (PA01); assay: microbe, parasite or virus in culture; type: cell-based
[18] = system: hypoxic M. tuberculosis strain H37Rv; assay: NRP bacteria under hypoxia (rapid anaerobic dormancy model); type: cell-based, Mycobacterium tuberculosis
[19] = system: Burkholderia cepacia (ATCC 25416); assay: MIC, spectrum of activity: B.c.; type: cell-based; details: ATCC25416, read-out: Minimum Inhibitory Concentration, B.c.
[20] = system: Acinetobacter baumannii (ATCC 19606); assay: MIC, spectrum of activity: Acinetobacter baumannii; type: cell-based; details: ATCC19606
[21] = system: Escherichia coli (ATCC 700926); assay: MIC, spectrum of activity: E.c.; type: cell-based; details: ATCC700926, read-out: Minimum Inhibitory Concentration, E.c.
[22] = system: Staphylococcus aureus (NRS70); assay: MIC, spectrum of activity: MRSA; type: cell-based; details: read-out: Minimum Inhibitory Concentration, MRSA

O=[N+]([O-])c1ccc(C2=NOC(c3ccc(N4CCC(Oc5ccc(OC(F)(F)F)cc5)CC4)cc3)C2)o1 (centres unmarked) [Compound 9a, 3-(5-Nitrofuran-2-yl)-5-(4-(4-(4-(trifluoromethoxy)phenoxy)piperidin-1-yl)phenyl)-4,5-dihydroisoxazole]
MIC [1]: > 200 µg/mL | Vd ([2]; iv, 10 mg/kg): 6.72 (1.10) L/kg | fe (fraction excreted unchanged in urine) ([2]; iv, 10 mg/kg): 0.04 (0.01) % | AUC0-∞ ([2]; po, 100 mg/kg): 10.2 (9.1) mg h/L | Cmin,24 h ([2]; po, 100 mg/kg): 0.17 (0.16) mg/L | Cmax [2]: 850 ng/mL | Cmin,24 h [2]: 0.17 µg/mL | MIC [3]: > 200 µg/mL | MIC [4]: > 200 µg/mL | MIC (H37Rv-wt): 0.025 µg/mL (≈ 0.0483 µM) | Minimum Inhibitory Concentration, E.c. ΔtolC (E. coli K12 ∆tolC): 50 µg/mL | MIC [5]: 25 µg/mL (≈ 48.3 µM) | MIC (M. kansasii (ATCC 12478)): 3.13 to 6.25 µg/mL (≈ 6.05 to 12.1 µM) | MIC [6]: 12.5 µg/mL (≈ 24.2 µM) | MIC [7]: 100 µg/mL (≈ 193 µM) | fold more potent than PA-824 (MIC) (M. tuberculosis; M. tuberculosis MIC compared with PA-824): 20 fold | MIC (M. tuberculosis; 168 h, read-out: M. tb. MIC): 0.024 µg/mL | MIC (M. tuberculosis; M. tuberculosis, […], read-out: MIC): 0.046 µM | MIC [8]: 12.5 µg/mL (≈ 24.2 µM) | MIC [9]: > 200 µg/mL | Solubility (pH 7.4) [10]: 2.7 ^h µg/mL | MIC [11]: 200 µg/mL (≈ 387 µM) | MBC (M. tuberculosis H37Rv): 3.13–6.25 | Classification (M. tuberculosis H37Rv; cidal or static from MBC versus MIC): Static (static (MBC/MIC >4)) | reduction in viability (killing) of actively growing culture [12]: 80% | reduction in viability of nutrient starved bacilli [12]: 80% | MIC (M. avium (ATCC 25291)): 200 µg/mL (≈ 387 µM) | IC50 [13]: 19.4 µg/mL (≈ 37.5 µM) | Selective Index (Cytox/MIC) (Vero cells): 808 | Plasma Protein binding [14]: 99.9 ^h % | half-life (in vitro): 5.06 h | MIC [15]: 100 µg/mL (≈ 193 µM) | MIC (M. fortuitum (ATCC 6841)): 6.25 to 12.5 µg/mL (≈ 12.1 to 24.2 µM) | MIC [16]: 50 µg/mL (≈ 96.6 µM) | MIC [17]: > 200 µg/mL | % Growth vs. Control [18]: <0.1% | killing of hypoxic bacilli ([18]; 10 µg/mL, NRP-2 bacilli): > 99.9% | MIC [19]: 50 µg/mL (≈ 96.6 µM) | MIC [20]: > 200 µg/mL | MIC [21]: > 200 µg/mL | MIC [22]: 50 µg/mL (≈ 96.6 µM)
